Tests used:
[1] = test system: MCF7; assay: Antiproliferative activity against human MCF7 cells assessed as cell growth inhibition incubated for 48 hrs by MTT assay; assay type: functional, cell-based; conditions: MCF7, 48 h
[2] = test system: BGC-823; assay: Antiproliferative activity against human BGC-823 cells assessed as cell growth inhibition at 0.5 uM incubated for 48 hrs by MTT assay relative to control; assay type: functional
[3] = test system: BGC-823; assay: Antiproliferative activity against human BGC-823 cells assessed as cell growth inhibition incubated for 48 hrs by MTT assay; assay type: functional, cell-based; conditions: BGC-823, 48 h
[4] = test system: HeLa; assay: Antiproliferative activity against human HeLa cells assessed as cell growth inhibition incubated for 48 hrs by MTT assay; assay type: functional, cell-based
[5] = test system: HCT-116; assay: Antiproliferative activity against human HCT-116 cells assessed as cell growth inhibition incubated for 48 hrs by MTT assay; assay type: functional, cell-based; conditions: HCT-116, 48 h
[6] = test system: HepG2; assay: Antiproliferative activity against human HepG2 cells assessed as cell growth inhibition incubated for 48 hrs by MTT assay; assay type: functional, cell-based; conditions: HepG2, 48 h
[7] = test system: BGC-823; assay: Induction of apoptosis in human BGC-823 cells assessed as viable cells at 1 uM incubated for 24 hrs by annexin-V-FITC and PI staining based flow cytometry analysis (reference value: 96.3%); assay type: functional; conditions: read-out: Activity
[8] = test system: BGC-823; assay: Induction of apoptosis in human BGC-823 cells assessed as late apoptotic cells at 1 uM incubated for 24 hrs by annexin-V-FITC and PI staining based flow cytometry analysis (reference value: 0.6%); assay type: functional
[9] = test system: BGC-823; assay: Antitumor activity against human BGC-823 cells xenografted in athymic BALB/c nude mouse assessed as tumor growth inhibition rate at 1.5 mg/kg, ip measured every 2 days for 21 days by curson caliper method relative to control; assay type: functional; conditions: BGC-823, 504 h, time 21 day, read-out: TGI
[10] = test system: BGC-823; assay: Induction of apoptosis in human BGC-823 cells assessed as necrotic cells at 1 uM incubated for 24 hrs by annexin-V-FITC and PI staining based flow cytometry analysis (reference value: 0.6%); assay type: functional
[11] = test system: BGC-823; assay: Induction of apoptosis in human BGC-823 cells assessed as early apoptotic cells at 1 uM incubated for 24 hrs by annexin-V-FITC and PI staining based flow cytometry analysis (reference value: 2.4%); assay type: functional

SMILES	IC50 [1] [nM]	inhibition at 0.5 µM [2] [%]	IC50 [3] [nM]	IC50 [4] [nM]	IC50 [5] [nM]	IC50 [6] [nM]	viability at 1 µM [7] [%]	Activity [8] [%]	inhibition in vivo at 1.5 mg/kg [9] [%]	Activity [10] [%]	Activity [11] [%]
CC1=C(O)C(=O)C=C2C1=CC=C1[C@@]2(C)CC[C@@]2(C)[C@@H]3C[C@](C)(C(=O)OCCCCn4cccn4)CC[C@]3(C)CC[C@]12C	1100	> 50	470	1100	890	860					
CC1=C(O)C(=O)C=C2C1=CC=C1[C@@]2(C)CC[C@@]2(C)[C@@H]3C[C@](C)(C(=O)OCCCCn4cc(C)cn4)CC[C@]3(C)CC[C@]12C	1000	> 50	430	910	880	840					
COC(=O)c1cnn(CCCOC(=O)[C@]2(C)CC[C@]3(C)CC[C@]4(C)C5=CC=C6C(=CC(=O)C(O)=C6C)[C@]5(C)CC[C@@]4(C)[C@@H]3C2)c1	520	> 50	280	610	590	390					
CCOC(=O)c1cnn(CCCCOC(=O)[C@]2(C)CC[C@]3(C)CC[C@]4(C)C5=CC=C6C(=CC(=O)C(O)=C6C)[C@]5(C)CC[C@@]4(C)[C@@H]3C2)c1	720	> 50	330	750	530	700					
COC(=O)c1cnn(CCCCOC(=O)[C@]2(C)CC[C@]3(C)CC[C@]4(C)C5=CC=C6C(=CC(=O)C(O)=C6C)[C@]5(C)CC[C@@]4(C)[C@@H]3C2)c1	840	> 50	340	820	690	820					
CC1=C(O)C(=O)C=C2C1=CC=C1[C@@]2(C)CC[C@@]2(C)[C@@H]3C[C@](C)(C(=O)OCCCCn4cc([N+](=O)[O-])cn4)CC[C@]3(C)CC[C@]12C	740	> 50	460	880	640	480					
CC1=C(O)C(=O)C=C2C1=CC=C1[C@@]2(C)CC[C@@]2(C)[C@@H]3C[C@](C)(C(=O)O)CC[C@]3(C)CC[C@]12C [CELASTROL]	1700		1100	1700	1900	1500	79.7	4	76.5	0.2	16.1
